Laboratory results reported in PubChem BioAssay AID252 (DTP/NCI, 2004).
Values joined by “and” are separate entries in the source; they are usually repeats but may differ in a detail not shown here. Identical values can stand only once. Inconclusive results and toxic doses are left out.

Test system: BDF1 mice, intracerebral L1210 leukemia, survival T/C
Assay: NCI In Vivo Anticancer Drug Screen. Data for tumor model L1210 Leukemia (intracerebral) in B6D2F1 (BDF1) mice
Settings: higher = longer survival
In short: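 Antitumour effect is judged in mice with transplanted tumour by comparing survival of treated (T) against vehicle-dosed (C) groups as T/C.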

**Q.** What does the source list for `O=NN(CCCl)C(=O)NC1CCCCCCCCCCC1`?
**A.** T/C (endpoint: mean survival time, dose: 298.0 mg/kg/injection, schedule: Q01DX001 (ip), vehicle: other): 103 % of control; T/C (endpoint: mean survival time, dose: 550.0 mg/kg/injection, schedule: Q01DX001 (ip), vehicle: other): 124 % of control; T/C (endpoint: mean survival time, dose: 596.0 mg/kg/injection, schedule: Q01DX001 (ip), vehicle: other): 108 % of control; T/C (endpoint: mean survival time, dose: 1250.0 mg/kg/injection, schedule: Q01DX001 (ip), vehicle: other): 159 % of control and 160 % of control; T/C (endpoint: mean survival time, dose: 1875.0 mg/kg/injection, schedule: Q01DX001 (ip), vehicle: other): 123 % of control; T/C (endpoint: mean survival time, dose: 2384.0 mg/kg/injection, schedule: Q01DX001 (ip), vehicle: other): 110 % of control

**Q.** What does the source list for `O=NN(CCCl)C(=O)NC1CCC(O)CC1` (configuration not stated)?
**A.** T/C (endpoint: mean survival time, dose: 13.0 mg/kg/injection, schedule: Q01DX001 (ip), vehicle: saline with Tween-80): 152 % of control; T/C (endpoint: mean survival time, dose: 13.0 mg/kg/injection, schedule: Q01DX001 (ip), vehicle: saline): 177 % of control; T/C (endpoint: mean survival time, dose: 20.0 mg/kg/injection, schedule: Q01DX001 (ip), vehicle: saline with Tween-80): 418 % of control; T/C (endpoint: mean survival time, dose: 26.0 mg/kg/injection, schedule: Q01DX001 (ip), vehicle: saline): 448 % of control; T/C (endpoint: mean survival time, dose: 30.0 mg/kg/injection, schedule: Q01DX001 (ip), vehicle: saline with Tween-80): 479 % of control; T/C (endpoint: mean survival time, dose: 40.0 mg/kg/injection, schedule: Q01DX001 (ip), vehicle: saline): 479 % of control; T/C (endpoint: mean survival time, dose: 44.0 mg/kg/injection, schedule: Q01DX001 (ip), vehicle: saline with Tween-80): 286 % of control; T/C (endpoint: mean survival time, dose: 60.0 mg/kg/injection, schedule: Q01DX001 (ip), vehicle: saline): 322 % of control; T/C (endpoint: mean survival time, dose: 67.0 mg/kg/injection, schedule: Q01DX001 (ip), vehicle: saline with Tween-80): 96 % of control; T/C (endpoint: mean survival time, dose: 90.0 mg/kg/injection, schedule: Q01DX001 (ip), vehicle: saline): 114 % of control

**Q.** `O=NN(CCCl)C(=O)NC1CCS(=O)(=O)C1` (configuration not stated) (tested in a mixture with another compound) was tested. Which T/C (endpoint: mean survival time, dose: 14.0 mg/kg/injection, schedule: Q01DX001 (oral), vehicle: other) did it give?
**A.** 172 % of control

**Q.** And the T/C (endpoint: mean survival time, dose: 16.0 mg/kg/injection, schedule: Q01DX001 (ip), vehicle: other)?
**A.** 156 % of control

**Q.** And the T/C (endpoint: mean survival time, dose: 22.0 mg/kg/injection, schedule: Q01DX001 (oral), vehicle: other)?
**A.** 217 % of control

**Q.** What about the T/C (endpoint: mean survival time, dose: 36.0 mg/kg/injection, schedule: Q01DX001 (ip), vehicle: other) of the same compound?
**A.** 121 % of control

**Q.** What about the T/C (endpoint: mean survival time, dose: 48.0 mg/kg/injection, schedule: Q01DX001 (oral), vehicle: other) of the same compound?
**A.** 116 % of control

**Q.** What does the source list for `O=NN(CCCl)C(=O)N[C@H]1CCCC[C@@H]1Cl`?
**A.** T/C (endpoint: mean survival time, dose: 5.0 mg/kg/injection, schedule: Q01DX001 (ip), vehicle: other): 102 % of control and 96 % of control; T/C (endpoint: mean survival time, dose: 10.0 mg/kg/injection, schedule: Q01DX001 (ip), vehicle: other): 106 % of control and 113 % of control; T/C (endpoint: mean survival time, dose: 13.0 mg/kg/injection, schedule: Q01DX001 (ip), vehicle: carboxymethylcellulose (CMC)): 120 % of control; T/C (endpoint: mean survival time, dose: 13.75 mg/kg/injection, schedule: Q01DX001 (oral), vehicle: other): 190 % of control and 226 % of control and 230 % of control; T/C (endpoint: mean survival time, dose: 15.25 mg/kg/injection, schedule: Q01DX001 (ip), vehicle: other): 158 % of control and 165 % of control and 216 % of control; T/C (endpoint: mean survival time, dose: 19.0 mg/kg/injection, schedule: Q01DX001 (ip), vehicle: carboxymethylcellulose (CMC)): 152 % of control; T/C (endpoint: mean survival time, dose: 20.0 mg/kg/injection, schedule: Q01DX001 (ip), vehicle: other): 175 % of control and 181 % of control; T/C (endpoint: mean survival time, dose: 26.0 mg/kg/injection, schedule: Q01DX001 (ip), vehicle: carboxymethylcellulose (CMC)): 164 % of control and 221 % of control; T/C (endpoint: mean survival time, dose: 27.5 mg/kg/injection, schedule: Q01DX001 (oral), vehicle: other): 315 % of control and 337 % of control and 442 % of control; T/C (endpoint: mean survival time, dose: 30.5 mg/kg/injection, schedule: Q01DX001 (ip), vehicle: carboxymethylcellulose (CMC)): 163 % of control; T/C (endpoint: mean survival time, dose: 30.5 mg/kg/injection, schedule: Q01DX001 (ip), vehicle: other): 278 % of control and 293 % of control and 361 % of control; T/C (endpoint: mean survival time, dose: 40.0 mg/kg/injection, schedule: Q01DX001 (ip), vehicle: carboxymethylcellulose (CMC)): 228 % of control and 310 % of control; T/C (endpoint: mean survival time, dose: 41.0 mg/kg/injection, schedule: Q01DX001 (ip), vehicle: other): 317 % of control and 391 % of control; T/C (endpoint: mean survival time, dose: 46.0 mg/kg/injection, schedule: Q01DX001 (ip), vehicle: carboxymethylcellulose (CMC)): 284 % of control; T/C (endpoint: mean survival time, dose: 55.0 mg/kg/injection, schedule: Q01DX001 (oral), vehicle: other): 184 % of control and 271 % of control and 351 % of control; T/C (endpoint: mean survival time, dose: 60.0 mg/kg/injection, schedule: Q01DX001 (ip), vehicle: carboxymethylcellulose (CMC)): 297 % of control; T/C (endpoint: mean survival time, dose: 61.0 mg/kg/injection, schedule: Q01DX001 (ip), vehicle: carboxymethylcellulose (CMC)): 274 % of control; T/C (endpoint: mean survival time, dose: 61.0 mg/kg/injection, schedule: Q01DX001 (ip), vehicle: other): 178 % of control and 254 % of control; T/C (endpoint: mean survival time, dose: 83.0 mg/kg/injection, schedule: Q01DX001 (ip), vehicle: other): 270 % of control and 419 % of control

**Q.** What does the source list for `O=NN(CCCl)C(=O)Nc1ccc(C(=O)O)cc1`?
**A.** T/C (endpoint: mean survival time, dose: 2.5 mg/kg/injection, schedule: Q01DX001 (ip), vehicle: carboxymethylcellulose (CMC)): 101 % of control; T/C (endpoint: mean survival time, dose: 3.7 mg/kg/injection, schedule: Q01DX001 (ip), vehicle: carboxymethylcellulose (CMC)): 97 % of control; T/C (endpoint: mean survival time, dose: 5.0 mg/kg/injection, schedule: Q01DX001 (ip), vehicle: carboxymethylcellulose (CMC)): 106 % of control; T/C (endpoint: mean survival time, dose: 6.0 mg/kg/injection, schedule: Q01DX001 (ip), vehicle: carboxymethylcellulose (CMC)): 100 % of control; T/C (endpoint: mean survival time, dose: 7.5 mg/kg/injection, schedule: Q01DX001 (ip), vehicle: carboxymethylcellulose (CMC)): 101 % of control; T/C (endpoint: mean survival time, dose: 8.0 mg/kg/injection, schedule: Q01DX001 (ip), vehicle: carboxymethylcellulose (CMC)): 106 % of control; T/C (endpoint: mean survival time, dose: 12.0 mg/kg/injection, schedule: Q01DX001 (ip), vehicle: carboxymethylcellulose (CMC)): 108 % of control; T/C (endpoint: mean survival time, dose: 18.0 mg/kg/injection, schedule: Q01DX001 (ip), vehicle: carboxymethylcellulose (CMC)): 104 % of control

**Q.** For `OC(C1CO1)C(O)C1CO1` (configuration not stated), which T/C (endpoint: mean survival time, dose: 0.65 mg/kg/injection, schedule: Q01DX009 (ip), vehicle: water) is on record?
**A.** 96 % of control

**Q.** What about the T/C (endpoint: mean survival time, dose: 1.0 mg/kg/injection, schedule: Q01DX009 (ip), vehicle: saline) of the same compound?
**A.** 109 % of control and 120 % of control

**Q.** And the T/C (endpoint: mean survival time, dose: 1.08 mg/kg/injection, schedule: Q01DX009 (ip), vehicle: water)?
**A.** 110 % of control

**Q.** And the T/C (endpoint: mean survival time, dose: 1.8 mg/kg/injection, schedule: Q01DX009 (ip), vehicle: water)?
**A.** 123 % of control

**Q.** And the T/C (endpoint: mean survival time, dose: 2.0 mg/kg/injection, schedule: Q01DX009 (ip), vehicle: saline)?
**A.** 92 % of control

**Q.** What about the T/C (endpoint: mean survival time, dose: 2.0 mg/kg/injection, schedule: Q03HX024 (ip), vehicle: saline) of the same compound?
**A.** 87 % of control

**Q.** And the T/C (endpoint: mean survival time, dose: 2.5 mg/kg/injection, schedule: Q01DX001 (ip), vehicle: water)?
**A.** 109 % of control

**Q.** And the T/C (endpoint: mean survival time, dose: 4.0 mg/kg/injection, schedule: Q01DX009 (ip), vehicle: saline)?
**A.** 103 % of control and 92 % of control

**Q.** And the T/C (endpoint: mean survival time, dose: 20.0 mg/kg/injection, schedule: Q01DX001 (ip), vehicle: water)?
**A.** 104 % of control

**Q.** And the T/C (endpoint: mean survival time, dose: 40.0 mg/kg/injection, schedule: Q01DX001 (ip), vehicle: water)?
**A.** 102 % of control

**Q.** And the T/C (endpoint: median survival time, dose: 0.5 mg/kg/injection, schedule: Q01DX001 (oral), vehicle: saline)?
**A.** 106 % of control

**Q.** And the T/C (endpoint: median survival time, dose: 4.0 mg/kg/injection, schedule: Q01DX001 (oral), vehicle: saline)?
**A.** 115 % of control

**Q.** What about the T/C (endpoint: median survival time, dose: 8.0 mg/kg/injection, schedule: Q01DX001 (oral), vehicle: saline) of the same compound?
**A.** 97 % of control

**Q.** And the T/C (endpoint: median survival time, dose: 16.0 mg/kg/injection, schedule: Q01DX001 (oral), vehicle: saline)?
**A.** 86 % of control

**Q.** How did the T/C (endpoint: mean survival time, dose: 8.0 mg/kg/injection, schedule: Q01DX009 (ip), vehicle: saline) turn out when `C[C@H]1CN1C1=CC(=O)C(N2C[C@@H]2C)=CC1=O` was run?
**A.** 90 % of control

**Q.** `O=C1C(Cl)=C(N2CC2)C(=O)C(Cl)=C1N1CC1` was tested. Which T/C (endpoint: mean survival time, dose: 0.62 mg/kg/injection, schedule: Q01DX009 (ip), vehicle: Klucel (hydroxypropylcellulose) (HPC)) did it give?
**A.** 98 % of control

**Q.** What about the T/C (endpoint: mean survival time, dose: 0.62 mg/kg/injection, schedule: Q01DX009 (ip), vehicle: saline) of the same compound?
**A.** 96 % of control

**Q.** What about the T/C (endpoint: mean survival time, dose: 1.25 mg/kg/injection, schedule: Q01DX009 (ip), vehicle: Klucel (hydroxypropylcellulose) (HPC)) of the same compound?
**A.** 98 % of control

**Q.** What about the T/C (endpoint: mean survival time, dose: 1.25 mg/kg/injection, schedule: Q01DX009 (ip), vehicle: saline) of the same compound?
**A.** 120 % of control and 96 % of control

**Q.** And the T/C (endpoint: mean survival time, dose: 2.5 mg/kg/injection, schedule: Q01DX009 (ip), vehicle: Klucel (hydroxypropylcellulose) (HPC))?
**A.** 98 % of control

**Q.** And the T/C (endpoint: mean survival time, dose: 5.0 mg/kg/injection, schedule: Q01DX009 (ip), vehicle: Klucel (hydroxypropylcellulose) (HPC))?
**A.** 96 % of control

**Q.** And the T/C (endpoint: mean survival time, dose: 10.0 mg/kg/injection, schedule: Q01DX009 (ip), vehicle: Klucel (hydroxypropylcellulose) (HPC))?
**A.** 96 % of control

**Q.** What about the T/C (endpoint: mean survival time, dose: 20.0 mg/kg/injection, schedule: Q01DX009 (ip), vehicle: Klucel (hydroxypropylcellulose) (HPC)) of the same compound?
**A.** 90 % of control

**Q.** And the T/C (endpoint: mean survival time, dose: 20.0 mg/kg/injection, schedule: Q01DX009 (ip), vehicle: saline)?
**A.** 87 % of control
